Where a SMILES comes first, the peptide text is derived from it. Bridges are numbered along the chain shown (N, C = ends).
Tests used:
[1] = molecular target: T1, Nav1.7 (Homo sapiens, UniProt Q15858); experiment: Recovery from fast inactivation (repriming) of Nav1.7; assay type: cell-based; conditions: 0.2 μM; at –100 mV; control 6.42 ± 0.85 ms; P < 0.05 paired t-test; mean ± SEM, n = 6–11 cells
T1 construct: expressed in transfected cells; host or cells: HEK293T
Text: (§1) The cDNA genes encoding rat Nav1.4 and human Nav1.7 were subcloned into vectors pRGB4 and pcDNA3.1-mod, respectively. Mutations of rNav1.4 (N655D, Q657E, and N655D/Q657E) and hNav1.7 (D816N, E818Q, and D816N/E818Q) were constructed using the Gene Tailor Site-Directed Mutagenesis system (Invitrogen, Carlsbad, CA, United States), according to the manufacturer’s instructions. Nav1.2–Nav1.7 and mutant plasmids together with eGFP were transiently transfected into HEK293T cells while Nav1.8 together with eGFP was transiently transfected into ND7/23 cells by Lipofectamine 2000 (Invitrogen, Carlsbad, CA, United States). […] Cells with green fluorescent protein fluorescence were selected for whole-cell patch-clamp recordings 24 h after transfection.
(§2) Whole-cell patch-clamp recordings were performed at room temperature (20–25°C) using an EPC 10 USB Patch Clamp Amplifier (HEKA, Elektronik, Lambrecht, Germany). […] Data was analyzed by software Igo Pro 6.10A (WaveMetrics, Lake Oswego, OR, United States), SigmaPlot 10.0 (Sigma-Aldrich, St. Louis, MO, United States), OriginPro 8 (OriginLab Corp., Northampton, MA, United States), and GraphPad Prism 5 (GraphPad Software, San Diego, CA, United States). […]
Fast inactivation time constants were calculated by fitting current decay traces with a single exponential function using the I–V protocol described above. […]

[2] = molecular target: T2, Nav1.7/D816N (Homo sapiens, UniProt Q15858, D827N); experiment: Whole-cell patch-clamp, Nav1.7/D816N in HEK293T cells; assay type: cell-based
T2 construct: expressed in transfected cells; host or cells: HEK293T
T2 sequence (O60939 30-215): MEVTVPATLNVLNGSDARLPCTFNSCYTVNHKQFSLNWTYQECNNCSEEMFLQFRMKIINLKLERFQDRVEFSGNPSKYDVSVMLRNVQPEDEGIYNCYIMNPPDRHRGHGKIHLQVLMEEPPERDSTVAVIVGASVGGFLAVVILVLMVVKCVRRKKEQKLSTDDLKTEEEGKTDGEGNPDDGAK
T2 sequence (Q07699 19-218, further chain): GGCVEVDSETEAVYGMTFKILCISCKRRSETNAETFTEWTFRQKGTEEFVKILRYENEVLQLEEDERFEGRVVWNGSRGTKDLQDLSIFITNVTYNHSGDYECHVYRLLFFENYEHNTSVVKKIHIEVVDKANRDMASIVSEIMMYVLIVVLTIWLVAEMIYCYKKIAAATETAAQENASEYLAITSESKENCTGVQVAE
T2 sequence (Q15858 other isoform, or with tags, fused parts or gaps D816N): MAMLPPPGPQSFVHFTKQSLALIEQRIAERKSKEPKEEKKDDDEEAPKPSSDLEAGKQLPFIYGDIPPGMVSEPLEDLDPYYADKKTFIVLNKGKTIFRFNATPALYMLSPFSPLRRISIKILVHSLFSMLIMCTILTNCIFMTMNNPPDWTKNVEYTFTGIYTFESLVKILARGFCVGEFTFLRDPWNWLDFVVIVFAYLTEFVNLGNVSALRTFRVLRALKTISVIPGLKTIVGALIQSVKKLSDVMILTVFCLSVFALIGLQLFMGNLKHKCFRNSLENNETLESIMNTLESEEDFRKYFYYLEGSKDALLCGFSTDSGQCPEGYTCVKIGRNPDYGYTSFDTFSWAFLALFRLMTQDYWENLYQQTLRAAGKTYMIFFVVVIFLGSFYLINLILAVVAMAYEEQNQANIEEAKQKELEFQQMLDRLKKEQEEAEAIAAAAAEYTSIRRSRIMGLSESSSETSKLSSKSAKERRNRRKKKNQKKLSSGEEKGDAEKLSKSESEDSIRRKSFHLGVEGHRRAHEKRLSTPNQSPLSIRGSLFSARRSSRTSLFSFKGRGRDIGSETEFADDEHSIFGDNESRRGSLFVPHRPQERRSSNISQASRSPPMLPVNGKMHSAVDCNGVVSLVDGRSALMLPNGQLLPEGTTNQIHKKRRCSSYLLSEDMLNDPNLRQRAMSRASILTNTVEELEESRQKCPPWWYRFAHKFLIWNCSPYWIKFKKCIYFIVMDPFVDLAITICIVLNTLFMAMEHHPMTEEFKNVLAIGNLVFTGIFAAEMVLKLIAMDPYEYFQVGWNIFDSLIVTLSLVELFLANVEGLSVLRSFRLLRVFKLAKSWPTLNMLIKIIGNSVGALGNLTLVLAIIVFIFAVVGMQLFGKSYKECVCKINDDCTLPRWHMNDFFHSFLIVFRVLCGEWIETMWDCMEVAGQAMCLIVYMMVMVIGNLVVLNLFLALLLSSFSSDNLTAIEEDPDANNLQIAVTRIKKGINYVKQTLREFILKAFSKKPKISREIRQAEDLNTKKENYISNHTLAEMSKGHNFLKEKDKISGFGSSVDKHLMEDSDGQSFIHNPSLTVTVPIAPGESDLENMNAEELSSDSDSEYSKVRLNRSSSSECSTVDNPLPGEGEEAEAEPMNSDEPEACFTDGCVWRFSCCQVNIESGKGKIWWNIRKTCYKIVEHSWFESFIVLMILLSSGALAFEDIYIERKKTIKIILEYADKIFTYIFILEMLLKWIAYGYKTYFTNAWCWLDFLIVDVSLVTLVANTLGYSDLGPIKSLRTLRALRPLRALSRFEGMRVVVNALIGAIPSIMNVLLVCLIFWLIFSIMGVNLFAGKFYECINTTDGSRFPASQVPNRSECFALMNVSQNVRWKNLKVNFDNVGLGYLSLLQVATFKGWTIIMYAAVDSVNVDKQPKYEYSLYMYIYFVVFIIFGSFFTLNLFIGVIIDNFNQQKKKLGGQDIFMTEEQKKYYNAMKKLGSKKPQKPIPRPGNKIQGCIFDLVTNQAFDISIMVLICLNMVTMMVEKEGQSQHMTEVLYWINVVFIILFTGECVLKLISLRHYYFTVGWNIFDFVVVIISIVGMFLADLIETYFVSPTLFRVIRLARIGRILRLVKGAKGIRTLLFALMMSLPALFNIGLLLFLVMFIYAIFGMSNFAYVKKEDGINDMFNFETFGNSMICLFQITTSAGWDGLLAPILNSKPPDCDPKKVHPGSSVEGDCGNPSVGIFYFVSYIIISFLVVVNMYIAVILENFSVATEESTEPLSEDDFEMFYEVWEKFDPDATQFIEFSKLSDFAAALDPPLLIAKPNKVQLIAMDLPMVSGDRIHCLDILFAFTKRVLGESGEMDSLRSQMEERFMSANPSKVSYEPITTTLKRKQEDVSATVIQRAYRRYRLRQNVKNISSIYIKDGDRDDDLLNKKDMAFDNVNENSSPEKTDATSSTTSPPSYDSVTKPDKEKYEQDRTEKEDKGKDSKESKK
Text: as §1, with “States). Additionally, plasmids β1- and β2-eGFP encoding the human β1 and β2 subunits, respectively, were co-transfected with those encoding WT Nav1.7 and Nav1.7 mutations in HEK293T cells.” for “States).”
as §2

[3] = tested on: Nav1.7/D816N/E818Q; experiment: Whole-cell patch-clamp, Nav1.7/D816N/E818Q in HEK293T cells; assay type: cell-based, human; conditions: 1 μM, n = 5 cells
Text: as §1, with “States). Additionally, plasmids β1- and β2-eGFP encoding the human β1 and β2 subunits, respectively, were co-transfected with those encoding WT Nav1.7 and Nav1.7 mutations in HEK293T cells.” for “States).”
as §2

T1 sequence (O60939 30-215): as the sequence (O60939 30-215) above
T1 sequence (Q15858 other isoform, or with tags, fused parts or gaps): as the sequence (Q15858 other isoform, or with tags, fused parts or gaps D816N) above, with N816D counted along it
T1 sequence (Q07699 19-218, further chain): as the sequence (Q07699 19-218, further chain) above

For `CC(C)C[C@H](NC(=O)[C@H](CC(=O)O)NC(=O)[C@H](Cc1ccc(O)cc1)NC(=O)[C@H](CCCCN)NC(=O)[C@@H]1CSSC[C@@H]2NC(=O)[C@H](CCCCN)NC(=O)[C@H](CC(=O)O)NC(=O)[C@H](CC(N)=O)NC(=O)[C@H](CO)NC(=O)[C@@H]3CCCN3C(=O)[C@H](CC(N)=O)NC(=O)[C@@H]3CSSC[C@H](NC(=O)[C@H](C(C)C)NC(=O)[C@H](CC(C)C)NC(=O)[C@H](CO)NC(=O)[C@H](CO)NC(=O)[C@H](CO)NC(=O)[C@H](CCCCN)NC(=O)[C@H](CSSC[C@H](NC(=O)[C@H](C)N)C(=O)N[C@@H](CC(C)C)C(=O)NCC(=O)N[C@@H](Cc4ccccc4)C(=O)NCC(=O)N[C@@H](CCC(=O)O)C(=O)N[C@@H](CCCCN)C(=O)N3)NC2=O)C(=O)N[C@@H](CO)C(=O)N[C@@H](CCC(N)=O)C(=O)N[C@@H](CCCCN)C(=O)N[C@@H](Cc2c[nH]cn2)C(=O)N[C@@H](CCCCN)C(=O)N[C@@H](Cc2c[nH]c3ccccc23)C(=O)N1)C(=O)O` [Ca2a] (H-ACLGFGEKCNPSNDKCCKSSSLVCSQKHKWCKYDL-OH; disulfide 2-17, 9-24, 16-31 (inferred); N-terminus and C-terminus assumed), the “τ of recovery from fast inactivation at Nav1.7” value [1] was 8.93 ± 1.62 ms, the “inhibition of Nav1.7/D816N current amplitude” value ([2]; 1 μM) was “significantly inhibited” and the IC50 ([2]; mean ± SEM, n = 5 cells per data point) was 172 ± 11.4 nM. For the same compound, the “activity on Nav1.7/D816N/E818Q” value [3] was “no activity”.

Reference: paper PMC6198068, “Discovery of a Novel Nav1.7 Inhibitor From Cyriopagopus albostriatus Venom With Potent Analgesic Efficacy” (Frontiers in Pharmacology, 2018)
